# Measurements from US8877163B2, “Cycloalkyl triamine pentacarboxylate as ligands for paramagnetic metal complexes” (Kaohsiung Medical University, priority 2006, dated 2014).
# Key:
# Assay type in all cases: physicochemical
# [1] = Relaxivity r1 by 20 MHz relaxometer; details: 37.0 ± 0.1° C., pH 7.4 ± 0.1
# Text: Mainly, the relaxivity of paramagnetic metal complex is affected by two factors, the inner-sphere and the outer-sphere relaxivities. Due to the existence of inner water molecules of the ligand of the present invention, the relaxivity thereof is mainly affected by the change of the inner-sphere relaxivity rather than the outer-sphere relaxivity (the outer-sphere relaxivity is considered similar to other ligands). The relaxivity of [Gd(CB-TTDA)]^2− is higher than those of [Gd(TTDA)]^2− (Y. M. Wang et al., Inorganic Chemistry, vol. 44, page 382, 2005) and [Gd(DTPA)]^2− (P. Caravan et al., Inorganic Chemistry, vol. 44, page 2170, 2001).
# [2] = Stability constants of the gadolinium complex by potentiometric titration (BEST program)
# Text: Presently, there are two ways for calculating the thermodynamic stability constant of a metal complex by the potentiometric titration. […] The second method is suitable for the metal complex whose disassociation rate is less than 25% at low pH (such as pH 2). Take the metal complex of the present invention for instance, since it is not able to form a complex with the ligand at a pH value around 2, the thermodynamic stability constant thereof must be calculated by the previous method. The equation for the thermodynamic stability constant is defined as follows: [formula] where M represents the metal ion, L represents the ligand, and ML represents the metal complex. […] The thermodynamic stability constants for the metal complexes with CB-TTDA are determined from the titration data with the FORTRAN computer program BEST as shown in Table 2 with the reported thermodynamic stability constants of TTDA and DTPA, which are respectively reported by Y M. Wang et al., Inorganic Chemistry, vol. 44, page 382, 2005 and by P. Caravan et al., Inorganic Chemistry, vol. 44, page 2170, 2001. The conditional stability constant (Kcond) specifies the degree of metal chelation at a given pH and is defined as follows: […] [formula] where LT is the total concentration of the uncomplexed ligand, which is defined by the following equation: […]
# [3] = Kinetic stability of the gadolinium complex toward zinc (II) transmetallation (relaxation rate ratio); details: incubation with zinc (II) for three days; phosphate buffer pH 7.4, 2.5 mM ZnCl2, 2.5 mM complex; 20 MHz, 37.0 ± 0.1° C.
# Text: Among Zn^2+, Ca^2+, Cu^2+ and other metal ions, the zinc (II) combines a rather high concentration with high affinity toward poly(amino carboxylate) and may result in the gadolinium complex dissociation in vivo. […] The reciprocal of the longitudinal relaxation time is the water proton paramagnetic longitudinal relaxation rate, R1^P(t), where the ration of R1^P(t)|R1^P(0) represents the stability of the gadolinium complex for Zn^2+. […] Based on the mentioned principle, the kinetic stability of the gadolinium complex for zinc (II) could be measured. […] Laurent et al, Invest. Radiol., vol. 36, page 155, 2001.
compound,measurement,setting,value
O=C([O-])CN(CCN(CC(=O)[O-])CC1(CN(CC(=O)[O-])CC(=O)[O-])CCC1)CC(=O)[O-].[Gd+3] [[Gd(CB-TTDA)]^2−],relaxivity r1,[1],4.12 ± 0.05 mM⁻¹ s⁻¹
same,calculated conditional stability constant of the gadolinium complex,[2],15.83
same,log KML [GdL]/[Gd][L] (thermodynamic stability constant),[2],20.28
same,R1^p (t = 3days)/R1^p (t = 0 days),[3],47.4%
